{"source": "paper PMC10221074", "about": "“Functional Profiling of the A-Family of Venom Peptides from the Wolf Spider Lycosa shansia” (Toxins, 2023)", "key": {"[1]": {"tested_on": "Micrococcus luteus DSM 20030", "assay": "Antibacterial growth assay (OD600)", "conditions": "OD600, medium = 100, MH II broth; for Bacterial growth relative to medium, M. luteus, replicate 1: replicate column 1; for Bacterial growth relative to medium, M. luteus, replicate 2: replicate column 2; for Bacterial growth relative to medium, M. luteus, replicate 3: replicate column 3", "protocol": "(§1) Cryo-conserved cultures of selected bacterial strains (Table 4) were transferred to Tryptic Soy Agar (TSA) plates (Carl Roth) with a sterile inoculation loop, sealed with Parafilm (BEMIS, Neenah, WI, USA), and incubated for 1–2 days at 37 °C depending on growth. Single colonies were picked and transferred into 2–3 mL of the Mueller–Hinton II (MH II) broth (BD, Heidelberg, Germany). The bacteria were cultivated overnight, subcultured on fresh medium and grown for 3–4 h before testing at 37 °C, with shaking at 180 rpm. We measured the optical density at 600 nm (OD600) of 1 mL of the bacterial suspensions in polystyrene cuvettes (SARSTED, Nümbrecht, Germany) using an Ultrospec 10 spectrophotometer (Biochrome, Cambridge, UK). We then diluted them with the MH II medium to the preferred OD600 (Table 2). The peptides were dissolved in DMSO to generate 10 mmol/L stocks and diluted with the MH II medium to 200 µM before the assay. We used 10 µg/mL (~40 µg/mL for S. epidermidis) gentamicin and colistin (Sigma-Aldrich, Taufkirchen, Germany), DMSO and the medium only as controls. The bacteria were transferred to 96-multiwell plates with a final volume of 100 µL per well (50 µL bacterial suspension, and 50 µL test peptide). The OD600 was measured at 0, 24 and 48 h using a BioTek Eon microplate reader followed by analysis with Gen5 v2.09."}, "[2]": {"tested_on": "Pseudomonas aeruginosa DSM 1117", "assay": "Antibacterial growth assay (OD600)", "conditions": "for Bacterial growth relative to medium, P. aeruginosa (1117), replicate 1 / Bacterial growth relative to medium, P. aeruginosa (1117), replicate 2 / Bacterial growth relative to medium, P. aeruginosa (1117), replicate 3: OD600, medium = 100, MH II broth; for Bacterial growth relative to medium, P. aeruginosa (1117), replicate 1: replicate column 1; for Bacterial growth relative to medium, P. aeruginosa (1117), replicate 2: replicate column 2; for Bacterial growth relative to medium, P. aeruginosa (1117), replicate 3: replicate column 3"}, "[3]": {"tested_on": "Staphylococcus aureus DSM 2569", "assay": "Antibacterial growth assay (OD600)", "conditions": "OD600, medium = 100, MH II broth; for Bacterial growth relative to medium, S. aureus, replicate 1: replicate column 1; for Bacterial growth relative to medium, S. aureus, replicate 2: replicate column 2; for Bacterial growth relative to medium, S. aureus, replicate 3: replicate column 3", "protocol": "as §1"}, "[4]": {"tested_on": "Staphylococcus epidermidis DSM 28319", "assay": "Antibacterial growth assay (OD600)", "conditions": "for Bacterial growth relative to medium, S. epidermidis, replicate 1: replicate column 1; for Bacterial growth relative to medium, S. epidermidis, replicate 2: replicate column 2; for Bacterial growth relative to medium, S. epidermidis, replicate 3: replicate column 3", "protocol": "as §1"}, "[5]": {"tested_on": "Pseudomonas aeruginosa DSM 50071", "assay": "Antibacterial growth assay (OD600)", "conditions": "OD600, medium = 100, MH II broth; for Bacterial growth relative to medium, P. aeruginosa (50071), replicate 1: replicate column 1; for Bacterial growth relative to medium, P. aeruginosa (50071), replicate 2: replicate column 2; for Bacterial growth relative to medium, P. aeruginosa (50071), replicate 3: replicate column 3"}, "[6]": {"tested_on": "Escherichia coli BL21(DE3)", "assay": "Antibacterial growth assay (OD600)", "conditions": "OD600, medium = 100, MH II broth; for Bacterial growth relative to medium, E. coli, replicate 1: replicate column 1; for Bacterial growth relative to medium, E. coli, replicate 2: replicate column 2; for Bacterial growth relative to medium, E. coli, replicate 3: replicate column 3"}, "[7]": {"tested_on": "Listeria monocytogenes DSM 20600", "assay": "Antibacterial growth assay (OD600)", "conditions": "for Bacterial growth relative to medium, L. monocytogenes, replicate 1 / Bacterial growth relative to medium, L. monocytogenes, replicate 2 / Bacterial growth relative to medium, L. monocytogenes, replicate 3: OD600, medium = 100, MH II broth; for Bacterial growth relative to medium, L. monocytogenes, replicate 1: replicate column 1; for Bacterial growth relative to medium, L. monocytogenes, replicate 2: replicate column 2; for Bacterial growth relative to medium, L. monocytogenes, replicate 3: replicate column 3"}, "[8]": {"tested_on": "B/Malaysia/2506/2004 (B-Mal)", "type": "cell-based, influenza virus"}, "A/Hamburg/05/2009 (H1N1)": {"tested_on": "A/Hamburg/05/2009 (H1N1)", "type": "cell-based, influenza virus"}, "A/Hessen/1/2003 (H3N2)": {"tested_on": "A/Hessen/1/2003 (H3N2)", "type": "cell-based, influenza virus"}, "[9]": {"tested_on": "panel of seven bacterial strains", "assay": "Antibacterial growth assay (OD600), statements on the whole panel", "type": "cell-based", "conditions": "growth after 48 h"}, "[10]": {"conditions": "antibiotic control, table line says 10µg/mL (methods: ~40 µg/mL for S. epidermidis), OD600, medium = 100"}, "[11]": {"conditions": "37 °C, peptide 200 µM mixed 50 µL + 50 µL with bacteria, Figure 7: 48 h"}, "[12]": {"conditions": "OD600, medium = 100, MH II broth, 37 °C, peptide 200 µM mixed 50 µL + 50 µL with bacteria, Figure 7: 48 h"}}, "data": [{"compound": "CNC(C)C1CCC(N)C(OC2C(N)CC(N)C(OC3OCC(C)(O)C(NC)C3O)C2O)O1", "note": "(centres unmarked) [Genta, gentamicin, reference compound]", "values": [{"measurement": "Bacterial growth relative to medium, M. luteus, replicate 1", "setting": "[1]; antibiotic control 10µg/mL", "value": 34.7531}, {"measurement": "Bacterial growth relative to medium, M. luteus, replicate 2", "setting": "[1]; antibiotic control 10µg/mL", "value": 33.0988}, {"measurement": "Bacterial growth relative to medium, M. luteus, replicate 3", "setting": "[1]; antibiotic control 10µg/mL", "value": 25.6914}, {"measurement": "Bacterial growth relative to medium, P. aeruginosa (1117), replicate 1", "setting": "[2]; antibiotic control 10µg/mL", "value": 7.251}, {"measurement": "Bacterial growth relative to medium, P. aeruginosa (1117), replicate 2", "setting": "[2]; antibiotic control 10µg/mL", "value": 12.1419}, {"measurement": "Bacterial growth relative to medium, P. aeruginosa (1117), replicate 3", "setting": "[2]; antibiotic control 10µg/mL", "value": 0.7836}, {"measurement": "Bacterial growth relative to medium, S. aureus, replicate 1", "setting": "[3]; antibiotic control 10µg/mL", "value": 10.1302}, {"measurement": "Bacterial growth relative to medium, S. aureus, replicate 2", "setting": "[3]; antibiotic control 10µg/mL", "value": 22.1938}, {"measurement": "Bacterial growth relative to medium, S. aureus, replicate 3", "setting": "[3]; antibiotic control 10µg/mL", "value": 8.389}, {"measurement": "Bacterial growth relative to medium, S. epidermidis, replicate 1", "setting": "[4]; [10]", "value": 41.1615}, {"measurement": "Bacterial growth relative to medium, S. epidermidis, replicate 2", "setting": "[4]; [10]", "value": 36.2191}, {"measurement": "Bacterial growth relative to medium, S. epidermidis, replicate 3", "setting": "[4]; [10]", "value": 58.2561}, {"measurement": "Bacterial growth relative to medium, P. aeruginosa (50071), replicate 1", "setting": "[5]; antibiotic control 10µg/mL", "value": 10.9397}, {"measurement": "Bacterial growth relative to medium, P. aeruginosa (50071), replicate 2", "setting": "[5]; antibiotic control 10µg/mL", "value": 9.403}, {"measurement": "Bacterial growth relative to medium, P. aeruginosa (50071), replicate 3", "setting": "[5]; antibiotic control 10µg/mL", "value": 6.959}, {"measurement": "Bacterial growth relative to medium, E. coli, replicate 1", "setting": "[6]; antibiotic control 10µg/mL", "value": 15.2669}, {"measurement": "Bacterial growth relative to medium, E. coli, replicate 2", "setting": "[6]; antibiotic control 10µg/mL", "value": 26.3127}, {"measurement": "Bacterial growth relative to medium, E. coli, replicate 3", "setting": "[6]; antibiotic control 10µg/mL", "value": 7.573}, {"measurement": "Bacterial growth relative to medium, L. monocytogenes, replicate 1", "setting": "[7]; antibiotic control 10µg/mL", "value": 41.2443}, {"measurement": "Bacterial growth relative to medium, L. monocytogenes, replicate 2", "setting": "[7]; antibiotic control 10µg/mL", "value": 32.6505}, {"measurement": "Bacterial growth relative to medium, L. monocytogenes, replicate 3", "setting": "[7]; antibiotic control 10µg/mL", "value": 13.0219}]}, {"compound": "SLFGLLDLVKNKVGQTGLL [LS-AMP-A2]", "values": [{"measurement": "Viability of infected cells relative to aprotinin, Replicate 1", "setting": "[8]", "value": 0.03127}, {"measurement": "Viability of infected cells relative to aprotinin, Replicate 2", "setting": "[8]", "value": 0.04494}, {"measurement": "Viability of infected cells relative to aprotinin, Replicate 3", "setting": "[8]", "value": 0.06464}, {"measurement": "Bacterial growth relative to medium, M. luteus, replicate 1", "setting": "[1]; [11]", "value": 118.679}, {"measurement": "Bacterial growth relative to medium, M. luteus, replicate 2", "setting": "[1]; [11]", "value": 181.194}, {"measurement": "Bacterial growth relative to medium, M. luteus, replicate 3", "setting": "[1]; [11]", "value": 65.5667}, {"measurement": "Viability of infected cells relative to aprotinin, Replicate 1", "setting": "A/Hamburg/05/2009 (H1N1)", "value": 0.06714}, {"measurement": "Viability of infected cells relative to aprotinin, Replicate 2", "setting": "A/Hamburg/05/2009 (H1N1)", "value": 0.03978}, {"measurement": "Viability of infected cells relative to aprotinin, Replicate 3", "setting": "A/Hamburg/05/2009 (H1N1)", "value": 0.06798}, {"measurement": "Viability of infected cells relative to aprotinin, Replicate 4", "setting": "A/Hamburg/05/2009 (H1N1); […], replicate 4 (additional internal control)", "value": 0.02665}, {"measurement": "Viability of infected cells relative to aprotinin, Replicate 5", "setting": "A/Hamburg/05/2009 (H1N1); […], replicate 5 (additional internal control)", "value": 0.03333}, {"measurement": "Bacterial growth relative to medium, P. aeruginosa (1117), replicate 1", "setting": "[2]; [11]", "value": 64.5445}, {"measurement": "Bacterial growth relative to medium, P. aeruginosa (1117), replicate 2", "setting": "[2]; [11]", "value": 72.5374}, {"measurement": "Bacterial growth relative to medium, P. aeruginosa (1117), replicate 3", "setting": "[2]; [11]", "value": 62.225}, {"measurement": "Antibacterial activity (in words)", "setting": "[2]; P. aeruginosa DSM 1117, growth after 48 h", "value": "less effective"}, {"measurement": "Viability of infected cells relative to aprotinin, Replicate 1", "setting": "A/Hessen/1/2003 (H3N2)", "value": 0.05065}, {"measurement": "Viability of infected cells relative to aprotinin, Replicate 2", "setting": "A/Hessen/1/2003 (H3N2)", "value": 0.0432}, {"measurement": "Viability of infected cells relative to aprotinin, Replicate 3", "setting": "A/Hessen/1/2003 (H3N2)", "value": 0.03436}, {"measurement": "Antibacterial activity over the panel (in words)", "setting": "[9]", "value": "limited activity"}, {"measurement": "Bacterial growth relative to medium, S. aureus, replicate 1", "setting": "[3]; [11]", "value": 88.0937}, {"measurement": "Bacterial growth relative to medium, S. aureus, replicate 2", "setting": "[3]; [11]", "value": 87.9986}, {"measurement": "Bacterial growth relative to medium, S. aureus, replicate 3", "setting": "[3]; [11]", "value": 104.003}, {"measurement": "Bacterial growth relative to medium, S. epidermidis, replicate 1", "setting": "[4]; [12]", "value": 112.577}, {"measurement": "Bacterial growth relative to medium, S. epidermidis, replicate 2", "setting": "[4]; [12]", "value": 143.959}, {"measurement": "Bacterial growth relative to medium, S. epidermidis, replicate 3", "setting": "[4]; [12]", "value": 90.9149}, {"measurement": "Bacterial growth relative to medium, P. aeruginosa (50071), replicate 1", "setting": "[5]; [11]", "value": 100.368}, {"measurement": "Bacterial growth relative to medium, P. aeruginosa (50071), replicate 2", "setting": "[5]; [11]", "value": 113.753}, {"measurement": "Bacterial growth relative to medium, P. aeruginosa (50071), replicate 3", "setting": "[5]; [11]", "value": 87.799}, {"measurement": "Bacterial growth relative to medium, E. coli, replicate 1", "setting": "[6]; [11]", "value": 128.192}, {"measurement": "Bacterial growth relative to medium, E. coli, replicate 2", "setting": "[6]; [11]", "value": 150.174}, {"measurement": "Bacterial growth relative to medium, E. coli, replicate 3", "setting": "[6]; [11]", "value": 124.918}, {"measurement": "Antibacterial activity (in words)", "setting": "[7]; L. monocytogenes DSM 20600, growth after 48 h", "value": "less effective"}, {"measurement": "Bacterial growth relative to medium, L. monocytogenes, replicate 1", "setting": "[7]; [11]", "value": 66.982}, {"measurement": "Bacterial growth relative to medium, L. monocytogenes, replicate 2", "setting": "[7]; [11]", "value": 116.711}, {"measurement": "Bacterial growth relative to medium, L. monocytogenes, replicate 3", "setting": "[7]; [11]", "value": 86.9442}]}]}
